Results: US6379900B1, “Compositions and methods of use of 8-nitroguanine” (Conceptual Mindworks, Inc., priority 2000, dated 2002)

What was measured:
[1] = tested on: supercoiled pUC19 plasmid DNA; experiment: Conversion of supercoiled plasmid DNA to open circles (single-stranded DNA breaks) by peroxynitrite; format: biochemical, E coli
Protocol: E coli strain JM109 containing plasmid DNA (pUC19) was grown in 2 ml of M9 media to which 24 μl of 2.5 mg/ml ampicillin was added. Following incubation for approximately 8 hours, the culture was transferred to 50 ml of M9 media containing ampicillin. The following day, 25 ml of the overnight culture was used to inoculate 500 ml of M9 media containing ampicillin. When the optical density at 600 nm of the bacterial culture reached between 0.6 and 0.8 O.D., 50 mg of chloramphenicol, dissolved in 1 ml of absolute ethanol, was added to the culture and the culture was incubated overnight. The next morning, cells were harvested by centrifugation. Plasmid DNA was isolated using a Promega Wizard MaxiPrep Kit. Cells were resuspended in resuspension solution, and lysis buffer was added. The buffer was neutralized after 20 min, the solution was centrifuged and the supernatant collected. To the supernatant was added 0.5 volumes of isopropanol, which caused the DNA to precipitate. […] After removing the fine particles the DNA was ready for use. Its concentration was measured by absorbance at 260 nm (0.2 OD units=10 μg/ml). Plasmid DNA was analyzed by electrophoresis in TAE buffer using a 1% agarose gel. […] DNA was analyzed as described above. The effect of peroxynitrite concentration on the conversion of supercoils to open circles was determined at pH 5, 6, 7, 8, and 9. […] DNA was analyzed as described above. […]

Calf Thymus DNA = experiment: Viscosity studies of DNA exposed to peroxynitrite (depurination and strand breakage); format: biochemical
Source text: As the degree of DNA damage increases, the likelihood of two single stranded breaks occurring within a few bases on the opposite strands of double-stranded DNA also increases. Double-stranded DNA breaks result in a decrease in the length of the DNA molecule, detectable as a decreased viscosity of linear double-stranded DNA. This method was also used to assay for depurination and DNA strand breakage. Stock solutions of Sigma Calf Thymus DNA were made by dissolving DNA in 0.1 M Na2HPO4, pH 8, 0.1 M sodium cacodylate, pH 5, 0.1 M Tris, pH 8, and 0.1 M borate, pH 8. The final volume for all viscosity experiments was 40 ml and the DNA concentration was 420 μg/ml. […] The data was recorded as the relative viscosity and specific viscosity of the solution.

[2] = cited from earlier work

O=NOO [peroxynitrite]
reduction in DNA supercoiling ([1]; minimum observed under the conditions of the study, constant peroxynitrite concentration): ≥ 45% | conversion of supercoiled plasmid DNA to open circles ([1]; pH 4 to 10, 30 minutes at room temperature): effective at converting supercoiled plasmid DNA to open circles at all pHs | activation energy of the depurination reaction (formation of single-stranded DNA nicks) (Calf Thymus DNA; Arrhenius analysis): 917 Joules/mole | viscosity of DNA solution with time of exposure (Calf Thymus DNA; all pH values, 37° C., within the first two hours of exposure): Viscosity decreased

O=NOO [peroxynitrous acid]
pKa ([2]; acid form of peroxynitrite): 6.8 | half life ([2]; pH 7.4): 1.9 s
